# Test results: patent publication US8871463B2, “Method for screening a glutamate release inhibitor in an astrocyte” (Korea Institute of Science and Technology, priority 2012, dated 2014)
# Entries after “also recorded” stand apart in the source; their conditions may differ. Where two headings read alike, the source gives them in different places.
# B1: RGS-2: Regulatory G protein signaling 2, over-expressed; selectively inhibits the Gq subunit (protein, UniProt P41220 1-211, looked up)
# Regulator of G-protein …: MQSAMFLAVQHDCRPMDKSAGSGHKSEEKREKMKRTLLKDWKTRLSYFLQNSSTPGKPKTGKKSKQQAFIKPSPEEAQLWSEAFDELLASKYGLAAFRAFLKSEFCEENIEFWLACEDFKKTKSPQKLSSKARKIYTDFIEKEAPKEINIDFQTKTLIAQNIQEATSGCFTTAQKRVYSLMENNSYPRFLESEFYQDLCKKPQITTEPHAT
# Legend:
# astrocyte [1] = test: Fura-2 Ca2+ imaging of astrocyte during sniffer patch; type: cell-based, mouse; conditions: for TFLLR-induced astrocytic Ca2+ transient: TFLLR 500 μM, 100 ms
# Method: On the day of sniffer-patch, cultured astrocytes (HEK cells added) were incubated with 5 μM Fura-2 AM (mixed with 5 μl of 20% Pluronic acid) (Invitrogen) for 40 min and washed at room temperature, and subsequently transferred to a microscope stage for imaging. External solution contained (in mM): 150 NaCl, 10 Hepes, 3 KCl, 2 CaCl2, 2 MgCl2, 5.5 glucose, pH adjusted to pH 7.3 and osmolarity to 325 mOsmol kg^−1. Intensity images of 510 nm wavelength were taken at 340 nm and 380 nm excitation wavelengths using either iXon EMCCD (DV887 DCS-BV, ANDOR technology). Two resulting images were used for ratio calculations in Axon Imaging Workbench version 6.2 (Axon Instruments). GluR1LY-mediated currents were recorded from HEK cells expressing GluR1L497Y under voltage clamp (Vh=−70 mV) using Multiclamp 700B amplifier (Molecular Devices), acquired with pClamp 9.2. Recording electrodes […] were filled with (mM): 110 Cs-Gluconate, 30 CsCl, 0.5 CaCl2, 10 Hepes, 4 Mg-ATP, 0.3 Na3-GTP and 10 BAPTA (pH adjusted to 7.3 with CsOH and osmolarity adjusted to 290-310 mOsm/kg with sucrose). For simultaneous recording, Imaging Workbench was synchronized with pClamp 9.2.
# astrocyte [2] = type: cell-based, mouse
# [3] = system: primary cultured astrocyte; type: cell-based, mouse
# GluR1-L497Y = GluR1-L497Y (Homo sapiens, UniProt P42261, L497Y); type: cell-based
# Chain of GluR1-L497Y (P42261 19-906 L497Y limits assumed): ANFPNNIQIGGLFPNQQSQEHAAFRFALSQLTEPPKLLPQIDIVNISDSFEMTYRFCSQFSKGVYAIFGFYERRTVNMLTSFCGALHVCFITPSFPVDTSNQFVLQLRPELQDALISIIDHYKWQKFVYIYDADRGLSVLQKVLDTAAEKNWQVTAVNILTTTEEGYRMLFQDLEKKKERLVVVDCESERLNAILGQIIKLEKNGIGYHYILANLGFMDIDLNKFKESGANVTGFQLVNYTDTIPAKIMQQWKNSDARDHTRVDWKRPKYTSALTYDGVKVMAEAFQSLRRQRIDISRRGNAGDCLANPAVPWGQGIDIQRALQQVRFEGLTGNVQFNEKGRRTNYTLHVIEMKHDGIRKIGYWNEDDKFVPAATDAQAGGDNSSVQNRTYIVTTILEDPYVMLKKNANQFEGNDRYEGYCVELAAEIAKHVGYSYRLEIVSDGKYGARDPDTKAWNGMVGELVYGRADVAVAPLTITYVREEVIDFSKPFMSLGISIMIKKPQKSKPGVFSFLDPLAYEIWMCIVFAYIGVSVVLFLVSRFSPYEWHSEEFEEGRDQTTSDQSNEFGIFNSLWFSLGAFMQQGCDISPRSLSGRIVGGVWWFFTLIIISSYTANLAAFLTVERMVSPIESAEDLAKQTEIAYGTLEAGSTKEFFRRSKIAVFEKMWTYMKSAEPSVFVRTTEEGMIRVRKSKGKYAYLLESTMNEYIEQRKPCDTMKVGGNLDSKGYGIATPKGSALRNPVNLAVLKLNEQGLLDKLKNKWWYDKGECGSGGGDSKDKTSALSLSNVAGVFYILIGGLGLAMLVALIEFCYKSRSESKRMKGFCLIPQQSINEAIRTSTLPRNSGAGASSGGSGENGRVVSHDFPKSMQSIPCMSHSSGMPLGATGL
molecule,measurement,setting,value
"CCCCC/C=C\C/C=C\C/C=C\C/C=C\CCCC(=O)NCCCl [ACEA, N-(2-Chloroethyl)-5Z,8Z,11Z,14Z-eicosatetraenamide]",astrocytic Ca2+ increase induced by the agent itself,astrocyte [1],without a measurable Ca^2+ increase
same,fast-mode of glutamate release induced by the agent itself,astrocyte [2],induces mainly fast-mode; also recorded: activated a fast-mode; also recorded: induce fast-mode
same,slow-mode of glutamate release induced by the agent itself,astrocyte [2],without a measurable Ca^2+ increase or a slow-mode
"CC(=O)OCOC(=O)CN(CC(=O)OCOC(C)=O)c1ccccc1OCCOc1ccccc1N(CC(=O)OCOC(C)=O)CC(=O)OCOC(C)=O [BAPTA-AM, 1,2-bis-(o-inophenoxy)ethane-N,N,N′,N′-tetraacetic Acid Tetra-(acetoxymethyl) Ester]",slow-mode of TFLLR-induced glutamate release,[3],significantly reduced
same,TFLLR-induced astrocytic Ca2+ transient,astrocyte [1],completely block; also recorded: eliminated
[Ba+2] [Ba^2+],fast and slow-modes of TFLLR-induced glutamate release (TFLLR-induced GluR1L497Y-mediated current),[3],did not show any significant effect
NCC(CC(=O)O)c1ccc(Cl)cc1 (centres unmarked) [Baclofen],astrocytic Ca2+ increase induced by the agent itself,astrocyte [1]; pressure-applied 100 ms,without a Ca^2+ transient
same,astrocytic Ca2+ increase induced by the agent itself,"astrocyte [1]; pressure-applied 100 ms, listed as baclofen",without a measurable Ca^2+ increase
same,fast-mode of glutamate release induced by the agent itself,astrocyte [2],activated a fast-mode; also recorded: induces fast-mode
same,slow-mode of glutamate release induced by the agent itself,astrocyte [2],without a measurable Ca^2+ increase or a slow-mode
"CC1(C)[C@@H](OC(=O)CCC(=O)O)CC[C@]2(C)[C@H]3C(=O)C=C4[C@@H]5C[C@@](C)(C(=O)O)CC[C@]5(C)CC[C@@]4(C)[C@]3(C)CC[C@@H]12 [CBX, Carbenoxolone]",fast and slow-modes of TFLLR-induced glutamate release (TFLLR-induced GluR1L497Y-mediated current),[3],does not inhibit; also recorded: did not show any significant effect
"OC[C@H]1O[C@@H](n2cnc3c(NC4CCCC4)nc(Cl)nc32)[C@H](O)[C@@H]1O [CCPA, 2-chloro-N(6)-cyclopentyladenosine]",astrocytic Ca2+ increase induced by the agent itself,astrocyte [1]; pressure-applied 100 ms,does not induce; also recorded: without a measurable Ca^2+ increase
same,fast-mode of glutamate release induced by the agent itself,astrocyte [2],induces mainly fast GluR1-mediated inward current; also recorded: activated a fast-mode; also recorded: induce fast-mode
same,slow-mode of glutamate release induced by the agent itself,astrocyte [2],without a measurable Ca^2+ increase or a slow-mode
"N#Cc1cc2c(cc1[N+](=O)[O-])=NC(=O)C(=O)N=2 [CNQX, 6-cyano-7-nitroquinoxaline-2,3-dione]",fast and slow-modes of TFLLR-induced glutamate release (TFLLR-induced GluR1L497Y-mediated current),[3],blocked
same,fast-mode of TFLLR-induced glutamate release,[3],blocked
same,slow-mode of TFLLR-induced glutamate release,[3],blocked
C/C=C/[C@H]1O[C@@](O)([C@@H](C)[C@H](O)[C@H](C)[C@H]2OC(=O)/C(OC)=C/C(C)=C/[C@@H](C)[C@@H](O)[C@@H](CC)[C@@H](O)[C@H](C)C/C(C)=C/C=C/[C@@H]2OC)C[C@@H](O[C@H]2C[C@@H](O)[C@H](OC(N)=O)[C@@H](C)O2)[C@@H]1C [Concanamycin A],fast and slow-modes of TFLLR-induced glutamate release (TFLLR-induced GluR1L497Y-mediated current),[3],appeared to block
same,1 mM glutamate-induced GluR1L497Y-mediated current of sensor cell,GluR1-L497Y,reduced
same,surface expression of GluR1-L497Y in the sensor cell,GluR1-L497Y,almost completely eliminated
[Cs+] [Cs^+],fast and slow-modes of TFLLR-induced glutamate release (TFLLR-induced GluR1L497Y-mediated current),[3],did not show any significant effect
"CCCCC1(C2CCCC2)Cc2cc(OCCCC(=O)O)c(Cl)c(Cl)c2C1=O (centres unmarked) [DCPIB, 4-(2-butyl-6,7-dichloro-2-cyclopentylindan-1-on-5-yl)oxybutyric acid]",fast and slow-modes of TFLLR-induced glutamate release (TFLLR-induced GluR1L497Y-mediated current),[3],did not show any significant effect
"O=S(=O)(O)c1cc(N=C=S)ccc1C=Cc1ccc(N=C=S)cc1S(=O)(=O)O [DIDS, 4,4′-Diisothiocyano-2,2′-stilbenedisulfonic acid]",fast and slow-modes of TFLLR-induced glutamate release (TFLLR-induced GluR1L497Y-mediated current),[3],inhibit; also recorded: blocked
"CC(C)Cn1c(=O)n(C)c(=O)c2[nH]cnc21 [IBMX, 3-isobutyl-1-methylxanthine]",fast-mode of TFLLR-induced glutamate release,[3],does not affect
"O=C(O)c1cccnc1Nc1cccc(C(F)(F)F)c1 [NFA, Niflumic acid]",fast and slow-modes of TFLLR-induced glutamate release (TFLLR-induced GluR1L497Y-mediated current),[3],inhibit; also recorded: blocked
same,1 mM glutamate-induced GluR1L497Y-mediated current of sensor cell,GluR1-L497Y,does not affect
"O=C(O)c1cc([N+](=O)[O-])ccc1NCCCc1ccccc1 [NPPB, 5-Nitro-2-(3-phenylpropylamino)benzoic Acid]",fast and slow-modes of TFLLR-induced glutamate release (TFLLR-induced GluR1L497Y-mediated current),[3],blocked
CC[N+](CC)(CC)CC [TEA],fast and slow-modes of TFLLR-induced glutamate release (TFLLR-induced GluR1L497Y-mediated current),[3],did not show any significant effect
C=C[C@H]1C[N@@]2CC[C@H]1C[C@H]2[C@H](O)c1ccnc2ccc(OC)cc12 [quinine],fast and slow-modes of TFLLR-induced glutamate release (TFLLR-induced GluR1L497Y-mediated current),[3],inhibit; also recorded: blocked
"C-terminus of Phosducin: C-terminus of mouse phosducin (251-278 a.a., SEQ ID NO: 6), over-expressed; inhibits Gαi-Gβγ dissociation",fast-mode of TFLLR-induced glutamate release,[3],almost completely inhibited; also recorded: inhibition of the fast-mode
same,TFLLR-induced astrocytic Ca2+ transient,astrocyte [1],without affecting
same,TFLLR-induced astrocytic Ca2+ transient,astrocyte [1]; listed as Phosducin C-terminal fragment,do not inhibit
TFLLR-NH2,time from TFLLR to slow peak,[3]; n=31,32.8 ± 2.6 s
same,time from TFLLR to Ca2+ peak,astrocyte [1]; n=31,10.8 ± 0.7 s
same,GluR1-mediated current induced in sensor HEK cell without astrocyte,GluR1-L497Y,does not induce
"β-ARK-c term: C-terminus of Beta-adrenergic receptor kinase (SEQ ID NO: 5), over-expressed; inhibits Gβγ dissociation (WKKELRDAYREAQQLVQRVPKMKNKPRSVQRVPKMKNKPRS; B-Ark(Beta-adrenergic receptor kinase) C-terminus)",TFLLR-induced astrocytic Ca2+ transient,astrocyte [1],do not inhibit
same,TFLLR-induced astrocytic Ca2+ transient,astrocyte [1]; listed as […]-ARK,without affecting
B1,TFLLR-induced astrocytic Ca2+ transient,astrocyte [1],greatly and significantly reduced; also recorded: selectively and significantly inhibited
